# Patent publication US20170044100A1, “INHIBITORS OF DRUG-RESISTANT MYCOBACTERIUM TUBERCULOSIS” (THE JOHNS HOPKINS UNIVERSITY, priority 2014, published 2017)
# Key:
# [1] = tested on: M. tuberculosis IAR2 (mmpL3 S288T mutant); assay type: cell-based, Mycobacterium tuberculosis
# [2] = tested on: TF274 (extensively drug resistant strain of M. tuberculosis); experiment: microbe, parasite or virus in culture; assay type: cell-based; conditions: Mycobacterium tuberculosis; read-out: MIC TF274 (XDR)
# [3] = tested on: R506 (extensively drug resistant strain of M. tuberculosis); experiment: microbe, parasite or virus in culture; assay type: cell-based; conditions: Mycobacterium tuberculosis; read-out: MIC R506 (XDR)
# [4] = tested on: KZN494 (multi-drug resistant strain of M. tuberculosis); experiment: microbe, parasite or virus in culture; assay type: cell-based; conditions: Mycobacterium tuberculosis; read-out: MIC KZN494 (MDR)
# [5] = tested on: V2475 (multi-drug resistant strain of M. tuberculosis); experiment: microbe, parasite or virus in culture; assay type: cell-based; conditions: Mycobacterium tuberculosis; read-out: MIC V2475 (MDR)
Molecule,MIC for IAR2 [1],MIC [2] [µM],Fold change in MIC for IAR2 [1],MIC [3] [µM],MIC upshift for IAR2 versus H37Rv [1] [fold],MIC [4] [µM],MIC [5] [µM],MIC for IAR2 compared with H37Rv [1]
AU1235,>64 µg/mL,–,–,–,–,–,–,–
"Cc1cc(C)c2cc(C(=O)NC3CCCCCCC3)[nH]c2c1 [Compound 12, N-Cyclooctyl-4,6-dimethyl-1H-indole-2-carboxamide]",0.25 µg/mL,0.026,64,0.0067,–,–,–,–
NCC[C@H](O)C(=O)N[C@@H]1C[C@H](N)[C@@H](O[C@H]2O[C@H](CN)[C@@H](O)[C@H](O)[C@H]2O)[C@H](O)[C@H]1O[C@H]1O[C@H](CO)[C@@H](O)[C@H](N)[C@H]1O [Amikacin],1 µg/mL,–,0,–,–,–,–,–
BM212,4 µg/mL,–,2,–,2,–,–,–
Capreomycin,1 µg/mL,–,0,–,–,–,–,–
"Cc1cc(C)c2cc(C(=O)NC3CCCCCC3)[nH]c2c1 [Compound 11, N-Cycloheptyl-4,6-dimethyl-1H-indole-2-carboxamide]",1 µg/mL,0.055,32-64,0.055,–,0.11,0.11,–
CO[C@H]1/C=C/O[C@@]2(C)Oc3c(C)c(O)c4c(O)c(c(/C=N/N5CCN(C)CC5)c(O)c4c3C2=O)NC(=O)/C(C)=C\C=C\[C@H](C)[C@H](O)[C@@H](C)[C@@H](O)[C@@H](C)[C@H](OC(C)=O)[C@@H]1C [Rifampin],0.03125 µg/mL,–,0.25,–,–,–,–,lower MIC value
"NNC(=O)c1ccncc1 [Isoniazid, reference compound]",0.04 µg/mL,–,0,–,–,–,–,–
CC(C)=CCC/C(C)=C/CNCCNC1C2CC3CC(C2)CC1C3 (stereo not shown) [SQ109],4 µg/mL,–,16,–,–,–,–,–
CC[C@@H](CO)NCCN[C@@H](CC)CO [Ethambutol],1 µg/mL,–,0,–,–,–,–,–
"Cc1cc(C)c2cc(C(=O)NC3CCCCC3)[nH]c2c1 [Compound 3, N-Cyclohexyl-4,6-dimethyl-1H-indole-2-carboxamide]",≧128 μg/mL,0.46,≧(512-1024),0.46,≥ 1024,3.7,0.93 to 1.9,–
